The nature of data set [1]: Determination of aqueous stability (UHPLC-DAD, 4 h at 37 °C). In kind it is physicochemical. Conditions: for Aqueous stability at all three investigated pH values (in words): pH 1.2, 6.8 and 7.4, no notable change in peak areas, no degradation products detected; for Aqueous stability pH = 1.2: compound concentration after 4 h of incubation compared to the initial value: pH 1.2 simulated gastric fluid, n = 3; for Aqueous stability pH = 6.8: compound concentration after 4 h of incubation compared to the initial value: pH 6.8 simulated intestinal fluid; for Aqueous stability pH = 6.8: compound concentration after 4 h of incubation compared to the initial value / Aqueous stability pH = 7.4: compound concentration after 4 h of incubation compared to the initial value: n = 3, * p < 0.05 vs initial; for Aqueous stability pH = 7.4: compound concentration after 4 h of incubation compared to the initial value: pH 7.4 PBS; for Significance of decrease in compound concentration (in words): paired-sample t-test, p < 0.05, pH 1.2, 6.8, 7.4. How it is done: The aqueous solutions and buffers were prepared as follows: pH = 1.2, 1.0 g NaCl and 3.5 mL HCl dissolved in distilled water to achieve the final volume of 500.0 mL; pH = 6.8, 20.2 g Na2HPO4·7H2O and 3.4 g NaH2PO4·H2O dissolved in distilled water to achieve the final volume of 1000.0 mL, pH adjustment with 0.5 M NaOH or 0.5 M HCl; pH = 7.4, one PBS tablet (phosphate buffered saline, pH 7.4; Sigma Aldrich, St. Louis, MO, USA) dissolved in 200.0 mL of distilled water.
With the aforementioned buffers, 10 mM dimethyl sulfoxide stock solutions of the isolated compounds were diluted 100-fold. […] For degradable compounds, the above-mentioned validated UHPLC-DAD method was used to examine the change in compound concentration. All experiments were performed in triplicates (n = 3).

A short description of data set [2]: Parallel artificial membrane permeability assay for the gastrointestinal tract (PAMPA-GI). In kind it is in vitro ADME. Conditions: for Papp at 4 h, 100 µM: PAMPA, read-out: log Pe PAMPA-GI (converted); for log Pe PAMPA-GI: donor pH 6.8, acceptor pH 7.4, 37 °C, 4 h, n = 9, Pe in cm/s, n.d. = not detected in the acceptor phase. The method, then: (§1) The test solutions were prepared with dimethyl sulfoxide (DMSO) at the concentration of 10.0 mM. These were diluted with phosphate buffers (pH = 7.4 for the PAMPA-BBB and pH = 6.8 for the PAMPA-GI) to obtain the donor solutions (297.0 μL buffer + 3.0 μL DMSO solution) and filtered through Phenex-RC 15 mm, 0.2 μm syringe filters (Gen-Lab Ltd., Budapest, Hungary). A parallel artificial membrane permeability assay (PAMPA) system was used to determine the effective permeability (Pe) for the compounds of interest. Each well of the top plate (96-well polycarbonate-based filter donor plates (Multiscreen™-IP, MAIPN4510, pore size 0.45 μm; Merck, Darmstadt, Germany) was coated with 5 μL of porcine polar brain lipid extract (PBLE) solution (16.0 mg PBLE + 8.0 mg cholesterol dissolved in 600.0 μL n-dodecane) for the PAMPA-BBB and with 5 μL of the mixture of 8.0 mg phosphatidylcholine + 4.0 mg cholesterol dissolved in 300.0 μL n-dodecane for PAMPA-GI. Thereafter, 150.0 μL of the filtrate was placed on the membrane. The bottom plate (96-well PTFE acceptor plates (MultiScreen Acceptor plate, MSSACCEPTOR; Millipore, Burlington, MA, USA)), was filled with a 300.0 μL buffer solution (0.01 M PBS buffer, pH = 7.4). The donor and acceptor plates were fit, and then the sandwich system was incubated at 37 °C for 4 h in a Stat-Fax 2200. After the incubation the PAMPA plates were separated and the compound concentrations in the donor (CD(t)) and acceptor (CA(t)) solutions, as well as in the donor solution at the zero time point (CD(0)) were determined by UHPLC-DAD. The effective permeability and the membrane retention in the PAMPA-BBB (1) and the PAMPA GI (2) experiments were calculated by the following equations [12]:(1) Pe=−2.303/A(t−τSS)·(VA·VD/VA+VD)·lg[1−(VA+VD/(1−MR)·VD)×(CA(t)/CD(0))] (2) Pe=−2.303/A(t−τSS))·(1/1+ra)·lg[−ra+(1+ra/1−MR)×(CD(t)/CD(0))] where Pe is the effective permeability coefficient (cm/s), A is the filter area (0.24 cm^2), VD and VA are the volumes in the donor (0.15 cm^3) and acceptor phases (0.30 cm^3), t is the incubation time (s), τSS is the time (s) to reach steady-state (240 s), CD(t) is the concentration (mol/cm^3) of the compound in the donor phase at time t, CD(0) is the concentration (mol/cm^3) of the compound in the donor phase at time 0, MR is the estimated membrane retention factor (the estimated mole fraction of solute lost to the membrane) and ra is the sink asymmetry ratio (gradient-pH-induced), defined as (3) ra=VD/VA×Pe(A→D)/Pe(D→A) (4) MR=1−CD(t)/CD(0)−VA/VDCA(t)/CD(0)
(§2) All experiments were performed in triplicates on three consecutive days (n = 9), caffeine standard was used as positive, while rutin as negative control. ClogP values were calculated by ChemAxon Marvin 22.3.
Background: In PAMPA a lipid-coated filter parts donor from acceptor wells.

The nature of data set [3]: Parallel artificial membrane permeability assay for the blood–brain barrier (PAMPA-BBB). Conditions: for log Pe PAMPA-BBB: donor pH 7.4, acceptor pH 7.4, 37 °C, 4 h, n = 9, Pe in cm/s, n.d. = not detected in the acceptor phase. In kind it is in vitro ADME. How it is done:
as §1, §2

“And” between values parts separate entries of the source, which are not always exact repeats. Equal values may be shown once.

The source of these data is paper PMC9231376, “Membrane Permeability and Aqueous Stability Study of Linear and Cyclic Diarylheptanoids from Corylus maxima” (Pharmaceutics, 2022).

For `O=C1CCc2ccc(O)c(c2)-c2cc(ccc2O)C[C@H](O)[C@H](O)[C@H]1O` [carpinontriol B (9), carpinontriol B], in data set [1], the “Aqueous stability at all three investigated pH values (in words)” value (“Aqueous stability … (in words)” below) was “stable”, the “Aqueous stability pH = 1.2: compound concentration after 4 h of incubation compared to the initial value” is reported as 102.75 ± 1.09%, the “Aqueous stability pH = 6.8: compound concentration after 4 h of incubation compared to the initial value” is given as 101.51 ± 1.75% and the “Aqueous stability pH = 7.4: compound concentration after 4 h of incubation compared to the initial value” was found to be 103.28 ± 1.81%. In data set [2], the Papp at 4 h, 100 µM was 3.24 ×10⁻⁶ cm/s.

With `COc1c2cc(c(OC)c1O)Oc1ccc(cc1)CCC(=O)C[C@H](O)/C=C\2` [giffonin F (8), giffonin F], in data set [1], the “Aqueous stability … (in words)” value was “stable”, the “Aqueous stability pH = 1.2: compound concentration after 4 h of incubation compared to the initial value” is 99.97 ± 1.01%, the “Aqueous stability pH = 6.8: compound concentration after 4 h of incubation compared to the initial value” is 102.68 ± 2.45% and the “Aqueous stability pH = 7.4: compound concentration after 4 h of incubation compared to the initial value” was found to be 100.92 ± 2.02%. Besides, the “log Pe PAMPA-BBB” value in data set [3] was “not detected in the acceptor phase”. In data set [2], the “log Pe PAMPA-GI” value is listed as “not detected in the acceptor phase”.

Consider `O=C(/C=C/CCc1ccc(O)c(O)c1)CCc1ccc(O)c(O)c1` [hirsutenone (3), hirsutenone], for which, in data set [1], the “Aqueous stability pH = 1.2: compound concentration after 4 h of incubation compared to the initial value” was 99.63 ± 0.37%, the “Aqueous stability pH = 7.4: compound concentration after 4 h of incubation compared to the initial value” is 83.80 ± 2.41 * % and the “Significance of decrease in compound concentration (in words)” value (from here on “Significance of decrease”) was “decreased significantly only at pH 7.4”. In data set [3], the “log Pe PAMPA-BBB” value is given as “not detected in the acceptor phase”. Also, the “log Pe PAMPA-GI” value in data set [2] is reported as “not detected in the acceptor phase”.

In the case of `O=C(CCc1ccc(O)c(O)c1)C[C@H](CCc1ccc(O)c(O)c1)O[C@@H]1OC[C@@H](O)[C@H](O)[C@H]1O` [oregonin (2), oregonin], in data set [1], the “Aqueous stability pH = 1.2: compound concentration after 4 h of incubation compared to the initial value” was 98.67 ± 2.43%; the “Aqueous stability pH = 6.8: compound concentration after 4 h of incubation compared to the initial value” is 91.22 ± 3.01 * %; the “Aqueous stability pH = 7.4: compound concentration after 4 h of incubation compared to the initial value” was 59.93 ± 2.85 * %; the “Significance of decrease” value was “significant decrease both at pH 6.8 and 7.4”. Besides, the “Aqueous stability pH = 7.4: compound concentration after 4 h of incubation compared to the initial value” in data set [1] (listed as 2) was determined as 59.93 ± 2.85%. The “log Pe PAMPA-BBB” value in data set [3] is on record as “not detected in the acceptor phase”. The “log Pe PAMPA-GI” value in data set [2] is “not detected in the acceptor phase”.

As to `O=C(/C=C/CCc1ccc(O)cc1)CCc1ccc(O)cc1` [platyphyllenone (5), platyphyllenone], in data set [1], the “Aqueous stability pH = 1.2: compound concentration after 4 h of incubation compared to the initial value” is 99.45 ± 1.05%; the “Aqueous stability pH = 6.8: compound concentration after 4 h of incubation compared to the initial value” was 94.98 ± 2.10% and 94.98 ± 2.10 * %; the “Aqueous stability pH = 7.4: compound concentration after 4 h of incubation compared to the initial value” was 90.40 ± 1.52% and 90.40 ± 1.52 * %; the “Significance of decrease” value was “significant decrease both at pH 6.8 and 7.4”. Also, in data set [3] (PAMPA, pH 7.4, read-out: log Pe PAMPA-BBB (converted)), the Papp at 4 h, 100 µM is 5.75 ×10⁻⁶ cm/s. Besides, the “log Pe PAMPA-BBB” value in data set [3] is on record as greater than −6.0. In data set [2], the Papp at 4 h, 100 µM is 12 ×10⁻⁶ cm/s and the “log Pe PAMPA-GI” value was “greater than −5.0”.

For `C[C@@H]1O[C@@H](Oc2c(-c3ccc(O)c(O)c3)oc3cc(O)cc(O)c3c2=O)[C@H](O)[C@H](O)[C@H]1O` [quercitrin (10), quercitrin], in data set [1], the “Aqueous stability … (in words)” value is “stable”, the “Aqueous stability pH = 1.2: compound concentration after 4 h of incubation compared to the initial value” was 100.91 ± 0.53%, the “Aqueous stability pH = 6.8: compound concentration after 4 h of incubation compared to the initial value” is listed as 102.35 ± 1.85% and the “Aqueous stability pH = 7.4: compound concentration after 4 h of incubation compared to the initial value” was determined as 100.75 ± 0.96%. The “log Pe PAMPA-BBB” value in data set [3] is “not detected in the acceptor phase”. The “log Pe PAMPA-GI” value in data set [2] was “not detected in the acceptor phase”.
